This note sets out measurements from patent US20080146651A1, “Injectable Composition for the Treatment of Cancers” (priority 2004, published 2008).

SMILES strings stand for the structures.

The data set can be described thus: Stability test of paclitaxel according to varying pH values (HPLC residual percentage). It counts as physicochemical. The settings on record: for Initial residual percentage (0 hour) / Residual percentage after 24 hours / Residual percentage after 48 hours: 40° C.

Experimental: Paclitaxel was completely dissolved using glycofurol and Solutol HS15, and was then diluted in a McIlvaine buffer at pH 3˜8. The dilution was allowed to stand at 40° C. After 24 and 48 hours, the residual percentages of paclitaxel were measured by HPLC.

On to `CC(=O)O[C@H]1C(=O)[C@@]2(C)[C@H]([C@H](OC(=O)c3ccccc3)[C@]3(O)C[C@H](OC(=O)[C@H](O)[C@@H](NC(=O)c4ccccc4)c4ccccc4)C(C)=C1C3(C)C)[C@]1(OC(C)=O)CO[C@@H]1C[C@@H]2O` [paclitaxel], for which the residual percentage is at least 99% (around pH 5, for 48 hours) and at least 98% (pH 4˜6, for 48 hours). Further, the “Initial residual percentage (0 hour)” value by setting is: (pH 3, McIlvaine buffer) 100%; (pH 4, McIlvaine buffer) 100%; (pH 5, McIlvaine buffer) 100%; (pH 6, McIlvaine buffer) 100%; (pH 7, McIlvaine buffer) 100%; (pH 8, McIlvaine buffer) 100%. In addition, the “Residual percentage after 24 hours” value came to 99.239% (pH 3, McIlvaine buffer); 99.025% (pH 4, McIlvaine buffer); 99.414% (pH 5, McIlvaine buffer); 98.765% (pH 6, McIlvaine buffer); 96.109% (pH 7, McIlvaine buffer); 77.297% (pH 8, McIlvaine buffer). The “Residual percentage after 48 hours” value by setting is: (pH 3, McIlvaine buffer) 97.509%; (pH 4, McIlvaine buffer) 98.221%; (pH 5, McIlvaine buffer) 99.292%; (pH 6, McIlvaine buffer) 98.183%; (pH 7, McIlvaine buffer) 94.344%; (pH 8, McIlvaine buffer) 57.38%. In addition, where the note is “pH 4˜6”, the “stability of paclitaxel with the passage of time” value is “stable”.
